Experimental data published in US8993628B2, “Synthetic ligands selective for LXRβ over LXRα, identification and methods of use thereof” (City of Hope, priority 2007, dated 2015).
“Also recorded” adds a separate entry of the source.

How the values were obtained:
ABCA1 = test: Gene expression analysis of endogenous LXR target gene ABCA1 in H4 cells; assay type: cell-based, human; conditions: for induction of ABCA1 expression: H4 neuroglioma cells, compared with T0901317
Description: (§1) The effect of various concentrations of LXRβ-selective compounds on endogenous LXR target genes in H4 cells was examined. […] Induction of ABCG1, another lipid-transporter regulated by LXR, was also observed in H4 cells treated with T0901317, DY136 and DY142. […] Gene expression analysis was conducted to measure the endogenous LXR target genes. Briefly, cells were plated in a 6-well plate at the following densities/well: 0.35 million H4 cells (DMEM, 10% FBS), 0.5 million CCF-STTG1 (RPMI, 15% FBS), 1 million SH-SY5Y (RPMI, 15% FBS), or 1 million THP (RPMI, 15% FBS+100 nM TPA for 3 days to differentiate). The cells were treated the next day in serum-free DMEM supplemented with insulin, transferrin, and selenium and apoA1 (10 μg/ml). The media was harvested 24 hours later, mixed with a protease inhibitor cocktail (Roche), debris was pelleted (14000 g, 5 min.) and the supernatant saved for Aβ measurements (below). The cells were then rinsed with PBS and lysed with Trizol reagent. RNA isolation and cDNA synthesis (OmniScript, Qiagen) were as per manufacturer's protocol. Gene expression analysis was done in triplicate with 30 ng of cDNA and the following primer-sets: ABCA1, ABCG1, SREBP1c, GAPDH, HPRT (either SYBR Green or FAM-labeled LUX primers (Invitrogen). None of these primers produce primer-dimers or amplified genomic DNA (all primer-sets are intron spanning). The signal for each target gene was normalized to GAPDH and/or HPRT.

apoE = test: Gene expression analysis of apoE in H4 cells; assay type: cell-based, human; conditions: H4 neuroglioma cells
SREBP1c = test: Gene expression analysis of endogenous LXR target gene SREBP1c in H4 cells; assay type: cell-based, human; conditions: compared with T0901317
Description: as §1, with “Gene expression analysis was done in triplicate with 30 ng of cDNA and the following primer-sets: ABCA1, ABCG1, SREBP1c, GAPDH, HPRT (either SYBR Green or FAM-labeled LUX primers (Invitrogen). None of these primers produce primer-dimers or amplified genomic DNA (all primer-sets are intron spanning). The signal for each target gene was normalized to GAPDH and/or HPRT.” left out

ABCG1 = test: Gene expression analysis of endogenous LXR target gene ABCG1 in H4 cells; assay type: cell-based, human
Description: as §1

human LXRβ [1] = target: T1, human LXRβ (Homo sapiens, UniProt P55055); test: GAL4-LXRβ reporter gene assay in transiently transfected CV-1 cells; assay type: cell-based; conditions: reporter gene assay, CV-1 cells; FIG. 2 left; receptor subtype not stated
T1 construct: EC50; other: reporter gene assay, CV-1 cells
T1 sequence (P55055 222-460): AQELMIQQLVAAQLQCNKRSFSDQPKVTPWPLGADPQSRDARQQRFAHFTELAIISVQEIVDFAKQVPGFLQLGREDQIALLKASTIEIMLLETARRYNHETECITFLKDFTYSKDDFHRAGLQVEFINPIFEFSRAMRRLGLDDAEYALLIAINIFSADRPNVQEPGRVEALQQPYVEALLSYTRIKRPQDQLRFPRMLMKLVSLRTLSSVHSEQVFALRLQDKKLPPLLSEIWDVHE
Description: (§2) Several potential LXR ligands were synthesized as described in Example 5. These compounds were assayed for activity on human LXRα and LXRβ using high-throughput reporter gene assays (e.g., reporter gene assays using Biomek automated workstation) in transiently transfected CV-1 cells.
(§3) In the reporter gene assay CV-1 cells were grown in Dulbecco's Modified Eagle's medium supplemented with 10% resin-charcoal stripped fetal bovine serum, 50 U/ml penicillin G and 50 μg/ml streptomycin sulfate (DMEM-FBS) at 37° C. in 5% CO2. One day prior to transfection, cells were plated to 50-80% confluence using phenol-red free DMEM-FBS. Cells were transiently transfected by lipofection with DOTAP. A GAL4 luciferase reporter construct (300 ng/10^5 cells) and cytomegalovirus driven expression vectors for GAL4-LXRα or GAL4-LXRβ (20-50 ng/10^5 cells) were added along with CMX-βgal (500 ng/10^5 cells) as an internal control. After 2 hours the liposomes were removed and cells treated for approximately 45 hours with phenol-red free DMEM-FBS containing the indicated LXR ligands. After exposure to ligand, the cells were harvested and assayed for luciferase and β-galactosidase activity. All points were assayed in triplicate. […] Use of reporter gene assays are known in the art and described for example in Sambrook et al., Molecular Cloning: A Laboratory Manual, 2nd Ed., Cold Spring Harbor Laboratory Press, Cold Spring Harbor, N.Y.

human LXRβ [2] = test: as above; assay type: cell-based; conditions: for LXRβ-selectivity factor, fold activation of LXRβ/LXRα: 10 μM, CV-1 reporter gene assays; for activation of LXRβ: reporter gene assay, CV-1 cells
Description: as §2, §3

LXR = conditions: cited from earlier work
human LXRα = test: GAL4-LXRα reporter gene assay in transiently transfected CV-1 cells; assay type: cell-based
Description: as §2
In the reporter gene assay CV-1 cells were grown in Dulbecco's Modified Eagle's medium supplemented with 10% resin-charcoal stripped fetal bovine serum, 50 U/ml penicillin G and 50 μg/ml streptomycin sulfate (DMEM-FBS) at 37° C. in 5% CO2. One day prior to transfection, cells were plated to 50-80% confluence using phenol-red free DMEM-FBS. Cells were transiently transfected by lipofection with DOTAP. A GAL4 luciferase reporter construct (300 ng/10^5 cells) and cytomegalovirus driven expression vectors for GAL4-LXRα or GAL4-LXRβ (20-50 ng/10^5 cells) were added along with CMX-βgal (500 ng/10^5 cells) as an internal control. After 2 hours the liposomes were removed and cells treated for approximately 45 hours with phenol-red free DMEM-FBS containing the indicated LXR ligands. After exposure to ligand, the cells were harvested and assayed for luciferase and β-galactosidase activity. All points were assayed in triplicate. […]

Aβ40 = Aβ40 secreted into the media of H4 cells (ELISA kit); assay type: cell-based, human; conditions: 1 μM, 24 hours
Description: In order to confirm the effects of LXR activation on Aβ production in human cells, human H4 neuroglioma cells were treated with the pan-LXR agonist T0901317 (1 μM) for 24 hours and measured the amount of total cellular cholesterol remaining in the cells and the amount of Aβ40 secreted into the media (FIG. 1). As expected, T0901317 reduced both intracellular cholesterol levels as well as secreted Aβ40. […] Also as expected, T0901317 induced a greater than 50-fold increase in ABCA1 expression in H4 cells (FIG. 2). […] To quantify Aβ production, cells were cultured as described above (gene expression analysis). Media was added to the diluent Buffer provided with the kit and assayed according to the manufacturer's instructions (Biosource).

[3] = test system: mouse Neuro2A cells expressing human APPswe; conditions: cited from earlier work
C57BL/6 mice = conditions: 1 week of treatment; cited from earlier work
[4] = test system: human H4 neuroglioma cells; test: Quantification of total cellular cholesterol in H4 cells (GC-MS); assay type: cell-based; conditions: 1 μM, 24 hours
Description: In order to confirm the effects of LXR activation on Aβ production in human cells, human H4 neuroglioma cells were treated with the pan-LXR agonist T0901317 (1 μM) for 24 hours and measured the amount of total cellular cholesterol remaining in the cells and the amount of Aβ40 secreted into the media (FIG. 1). As expected, T0901317 reduced both intracellular cholesterol levels as well as secreted Aβ40. […] Also as expected, T0901317 induced a greater than 50-fold increase in ABCA1 expression in H4 cells (FIG. 2). […] For quantification of total cellular cholesterol, H4 cells are seeded in 12-well plates at 70,000 per well. Cells are treated with DMSO (vehicle) or T0901317 in serum-free DMEM for 24 hours in presence of 10 μg/ml apoA1. Cells were lysed with 1N NaOH in 90% ethanol and 10 μM of 5α-cholestane as an internal control tracer. Cholesterol esters were hydrolyzed by incubation at 65° C. for 2 hours. Equal volume of water is added to the samples, and extracted twice with 2 volumes of hexane.

[5] = test system: transgenic mice expressing human APPswe; conditions: one-week treatment; cited from earlier work
[6] = test system: primary neuronal and astrocyte cultures; conditions: cited from earlier work

EC50 (human LXRβ [1]) [µM] | SMILES | induction of ABCA1 expression (ABCA1) | ApoE expression (apoE) | induction of SREBP1c (SREBP1c) | induction of ABCG1 (ABCG1) | LXRβ-selectivity factor, fold activation of LXRβ/LXRα (human LXRβ [2]) | association of LXR with a coactivator peptide derived from SRC-1 (LXR) | activation of LXRα (human LXRα) | activation of LXRβ (human LXRβ [2]) | increase in ABCA1 expression (ABCA1; H4 cells) | secreted Aβ40 (Aβ40) | Aβ production [3] | hypertriglyceridemia (C57BL/6 mice) | intracellular cholesterol levels (total cellular cholesterol) [4] | Aβ40 and Aβ42 in the brain [5] | cholesterol efflux [6]
1 to 3 | O=C(O)Cc1cccc(OCCCN(Cc2cccc(C(F)(F)F)c2F)CC(c2ccccc2)c2ccccc2)c1 [DY136, (3-{3-[(2,2-Diphenyl-ethyl)-(2-fluoro-3-trifluoromethyl-benzyl)-amino]-propoxy}-phenyl)-acetic acid] | expected activation; also recorded: to a level nearly that of the pan-agonist T0901317 | increased | little effect; also recorded: only half that observed with T0901317 | observed | 3.4 |  |  |  |  |  |  |  |  |  | 
1 to 3 | O=C(O)Cc1cccc(OCCCN(Cc2cccc(C(F)(F)F)c2)CC(c2ccccc2)c2ccccc2)c1 [DY142, (3-{3-[(2,2-Diphenyl-ethyl)-(3-trifluoromethyl-benzyl)-amino]-propoxy}-phenyl)-acetic acid] | expected activation; also recorded: to a level nearly that of the pan-agonist T0901317 | increased by all three ligands, although the effects were slightly lower | little effect; also recorded: only half that observed with T0901317 | observed | 6.5 |  |  |  |  |  |  |  |  |  | 
 | O=C(O)Cc1cccc(OCCCN(Cc2cccc(C(F)(F)F)c2Cl)CC(c2ccccc2)c2ccccc2)c1 [GW3965] |  |  |  |  | 2.2 | promotes association | activated | activated |  |  |  |  |  |  | 
 | O=S(=O)(c1ccccc1)N(CC(F)(F)F)c1ccc(C(O)(C(F)(F)F)C(F)(F)F)cc1 [T0901317] |  | increased |  | observed | 1.7 |  | activated | activated | greater than 50 fold | reduced | decreased | induces severe hypertriglyceridemia | reduced | significant decrease | enhanced cholesterol efflux
